Results published in patent US20030166922A1, “Novel cephalosporin compounds and process for preparing the same” (priority 2000, published 2003).
In brackets after ≈: the same amount, converted by molar mass. Read-outs that look alike come from different tables or passages of the source. Values belong to the compound of their own block, whether it stands above or below them.

What was measured:
Test in all cases: Minimum Inhibitory Concentration (MIC), agar dilution, standard strains
[1] = tested on: S. epidermidis R005; format: cell-based; settings: Mueller-Hinton agar, 37° C., 20 hours; for MIC: Staphylococcus epidermidis, R005, read-out: Minimum Inhibitory Concentration (MIC), S. epidermidis R005
Procedure: (§1) Minimum Inhibitory Concentration (MIC)
(§2) The effectiveness of the compound according to the present invention was determined by obtaining Minimum Inhibitory Concentration (MIC) of the compounds prepared by the above Examples (I-1 to I-33) and vancomycin, which is the known compound having a potent activity against gram-positive strains, as the control drug against the standard strains. Specifically, Minimum Inhibitory Concentration was obtained by diluting the test material with a double dilution method, dispersing them in Mueller-Hinton agar medium, inoculating each of the test strain having 10^7 cfu (colny forming unit) in an amount of 2:1 to the medium and then incubating them at 37° C. for 20 hours.

[2] = tested on: E. faecalis EFS004; format: cell-based; settings: Table 2; Mueller-Hinton agar, 37° C., 20 hours
Procedure: as §1, §2

[3] = tested on: Staphylococcus aureus giorgio; format: cell-based; settings: Mueller-Hinton agar, 37° C., 20 hours; for Minimum Inhibitory Concentration (MIC), S. aureus giorgio: Table 2
Procedure: as §1, §2

[4] = tested on: S. aureus K311; format: cell-based, Staphylococcus aureus; settings: Table 2; Mueller-Hinton agar, 37° C., 20 hours
Procedure: as §1, §2

[5] = tested on: S. aureus 77; format: cell-based, Staphylococcus aureus; settings: Mueller-Hinton agar, 37° C., 20 hours; for MIC: Staphylococcus aureus, 77, read-out: Minimum Inhibitory Concentration (MIC), S. aureus 77
Procedure: as §1, §2

[6] = tested on: E. faecalis L239; format: cell-based; settings: Table 1, Mueller-Hinton agar, 37° C., 20 hours
Procedure: as §1, §2

[7] = tested on: S. aureus 241; format: cell-based, Staphylococcus aureus; settings: Table 1, Mueller-Hinton agar, 37° C., 20 hours
Procedure: as §1, §2

Compound: Nc1nc(SCSC2=C(C(=O)O)N3C(=O)[C@@H](NC(=O)CSc4cc(Cl)nc(Cl)c4)[C@H]3SC2)nc2[nH]ncc12 [Example I-26, (6R,7R)-3-({[(4-amino-1H-pyrazolo[3 ,4-d]pyrimidin-6-yl)sulfanyl]methy-1}sulfanyl)-7-({2-[(2,6-dichloro-4-pyridinyl)sulfanyl]acetyl}amino)-8-oxo-5-thia-1-azabi-cyclo[4.2.0]oct-2-ene-2-carboxylic acid]
Minimum Inhibitory Concentration (MIC), S. epidermidis R005 ([1]; Table 2): 0.25 :g/ml | Minimum Inhibitory Concentration (MIC), E. faecalis EFS004 [2]: 0.5 :g/ml | Minimum Inhibitory Concentration (MIC), S. aureus giorgio [3]: 0.016 :g/ml | Minimum Inhibitory Concentration (MIC), S. aureus K311 [4]: 0.5 :g/ml | Minimum Inhibitory Concentration (MIC), S. aureus 77 ([5]; Table 2): 0.25 :g/ml

Compound: Nc1nc(O)cc(SCSC2=C(C(=O)O)N3C(=O)[C@@H](NC(=O)CSc4cc(Cl)nc(Cl)c4)[C@H]3SC2)n1 [Example I-28, (6R,7R)-3-({[(2-amino-6-hydroxy-4-pyrimidinyl)sulfanyl]methyl}sulfanyl)-7-({2-[(2,6-dic hloro-4-pyridinyl)sulfanyl]acetyl}amino)-8-oxo-5-thia-1-azabicyclo[4.2.0]-oct-2-ene-2-car boxylic acid]
MIC ([1]; Table 2): 0.25 µg/mL (≈ 0.411 µM) | Minimum Inhibitory Concentration (MIC), E. faecalis EFS004 [2]: 1 :g/ml | Minimum Inhibitory Concentration (MIC), S. aureus giorgio [3]: 0.031 :g/ml | Minimum Inhibitory Concentration (MIC), S. aureus K311 [4]: 0.5 :g/ml | MIC ([5]; Table 2): 0.25 µg/mL (≈ 0.411 µM)

Compound: CCSc1nc(C)cc(SCSC2=C(C(=O)O)N3C(=O)[C@@H](NC(=O)CSc4cc(Cl)ccc4Cl)[C@H]3SC2)n1 [Example I-12, (6R,7R)-7-({2-[(2,5-dichlorophenyl)sulfanyl]acetyl}amino)-3-[({[2-(ethylsul-fanyl)-6-methyl-4-pyrimidinyl]sulfanyl}methyl)sulfanyl]-8-oxo-5-thia-1-azabicyclo[4.2. 0]oct-2-ene-2-carboxylic acid]
Minimum Inhibitory Concentration (MIC), S. epidermidis R005 ([1]; Table 1): 0.5 :g/ml | Minimum Inhibitory Concentration (MIC), E. faecalis L239 [6]: 0.25 :g/ml | Minimum Inhibitory Concentration (MIC), Staphylococcus aureus giorgio ([3]; Table 1): 0.031 :g/ml | Minimum Inhibitory Concentration (MIC), S. aureus 241 [7]: 4 :g/ml | Minimum Inhibitory Concentration (MIC), S. aureus 77 ([5]; Table 1): 0.5 :g/ml

Compound: O=C(CSc1cc(Cl)nc(Cl)c1)N[C@@H]1C(=O)N2C(C(=O)O)=C(SCSc3ncnc4[nH]ncc34)CS[C@H]12 [Example I-27, (6R,7R)-7-({2-[(2,6-dichloro-4-pyridinyl)sulfanyl]acetyl}amino)-8-oxo-3-{[(1H-pyrazolo[3,4-d]pyrimidin-4-yl-sulfanyl)methyl]sulfanyl}-5-thia-1-azabicyclo[4.2. 0]oct-2-ene-2-carboxylic acid]
MIC ([1]; Table 2): 0.25 µg/mL (≈ 0.405 µM) | Minimum Inhibitory Concentration (MIC), E. faecalis EFS004 [2]: 0.5 :g/ml | Minimum Inhibitory Concentration (MIC), S. aureus giorgio [3]: 0.13 :g/ml | Minimum Inhibitory Concentration (MIC), S. aureus K311 [4]: 0.5 :g/ml | MIC ([5]; Table 2): 0.25 µg/mL (≈ 0.405 µM)

Compound: Nc1nc(SCSC2=C(C(=O)O)N3C(=O)[C@@H](NC(=O)CSc4cc(Cl)ccc4Cl)[C@H]3SC2)nc2cn[nH]c12 [Example I-13, (6R,7R)-3-({[(7-amino-1H-pyrazolo [4,3-d]pyrimidin-5-yl)sulfanyl]methy-1}sulfanyl)-7-({2-[(2,5-dichlorophenyl)sulfanyl]acetyl}amino)-8-oxo-5-thia-1-azabicyc-lo[4.2.0]oct-2-ene-2-carboxylic acid]
Minimum Inhibitory Concentration (MIC), S. epidermidis R005 ([1]; Table 1): 0.13 :g/ml | Minimum Inhibitory Concentration (MIC), E. faecalis L239 [6]: 0.25 :g/ml | Minimum Inhibitory Concentration (MIC), Staphylococcus aureus giorgio ([3]; Table 1): <0.008 :g/ml | Minimum Inhibitory Concentration (MIC), S. aureus 241 [7]: 2 :g/ml | Minimum Inhibitory Concentration (MIC), S. aureus 77 ([5]; Table 1): 0.13 :g/ml

Compound: CCSc1nc(C)cc(SCSC2=C(C(=O)O)N3C(=O)[C@@H](NC(=O)CSc4cc(Cl)nc(Cl)c4)[C@H]3SC2)n1 [Example I-29, (6R,7R)-7-({2-[(2,6-dichloro-4-pyridinyl)sulfanyl]acetyl}amino)-3-[({[2-(ethylsulfanyl)-6-methyl-4-pyrimidinyl]sulfanyl)methyl]sulfanyl}-8-oxo-5-thia-1-azabicy-clo[4.2.0]oct-2-ene-2-carboxylic acid]
Minimum Inhibitory Concentration (MIC), S. epidermidis R005 ([1]; Table 2): 1 :g/ml | Minimum Inhibitory Concentration (MIC), E. faecalis EFS004 [2]: 0.25 :g/ml | Minimum Inhibitory Concentration (MIC), S. aureus giorgio [3]: 0.031 :g/ml | Minimum Inhibitory Concentration (MIC), S. aureus K311 [4]: 2 :g/ml | Minimum Inhibitory Concentration (MIC), S. aureus 77 ([5]; Table 2): 0.5 :g/ml

Compound: Nc1cc(N)nc(SCSC2=C(C(=O)O)N3C(=O)[C@@H](NC(=O)CSc4cc(Cl)nc(Cl)c4)[C@H]3SC2)n1 [Example I-25, (6R,7R)-3-({[(4,6-diamino-2-pyrimidinyl)sulfanyl]methyl}sulfanyl)-7-({2-[(2,6-dichloro-4-pyridinyl)sulfanyl]acetyl}amino)-8-oxo-5-thia-1-azabicyclo[4.2.0]oct-2-ene-2-carboxylic acid]
MIC ([1]; Table 2): 0.25 µg/mL (≈ 0.412 µM) | Minimum Inhibitory Concentration (MIC), E. faecalis EFS004 [2]: 0.5 :g/ml | Minimum Inhibitory Concentration (MIC), S. aureus giorgio [3]: 0.016 :g/ml | Minimum Inhibitory Concentration (MIC), S. aureus K311 [4]: 0.5 :g/ml | MIC ([5]; Table 2): 0.25 µg/mL (≈ 0.412 µM)

Next, values leading:

Minimum Inhibitory Concentration (MIC), S. epidermidis R005 ([1]; Table 1): 0.5 :g/ml | Minimum Inhibitory Concentration (MIC), E. faecalis L239 [6]: 4 :g/ml | Minimum Inhibitory Concentration (MIC), Staphylococcus aureus giorgio ([3]; Table 1): 0.031 :g/ml | Minimum Inhibitory Concentration (MIC), S. aureus 241 [7]: 8 :g/ml | Minimum Inhibitory Concentration (MIC), S. aureus 77 ([5]; Table 1): 0.5 :g/ml
Compound: CN(CC(=O)N[C@@H]1C(=O)N2C(C(=O)O)=C(SCSc3cc(N)nc(N)n3)CS[C@H]12)c1cc(Cl)ccc1Cl [Example I-6, (6R,7R)-3-({[(2,6-diamino-4-pyrimidinyl)sulfanyl]methyl}sulfanyl)-7-({2-[2,5-dichloro(methyl)anilino]acetyl}amino)-8-oxo-5-thia-1-azabicyclo[4.2.0]oct-2-ene-2-carboxylic acid]

Minimum Inhibitory Concentration (MIC), S. epidermidis R005 ([1]; Table 1): 0.13 :g/ml | Minimum Inhibitory Concentration (MIC), E. faecalis L239 [6]: 0.5 :g/ml | Minimum Inhibitory Concentration (MIC), Staphylococcus aureus giorgio ([3]; Table 1): <0.008 :g/ml | Minimum Inhibitory Concentration (MIC), S. aureus 241 [7]: 4 :g/ml | Minimum Inhibitory Concentration (MIC), S. aureus 77 ([5]; Table 1): 0.25 :g/ml
Compound: Nc1cc(N)[n+](N)c(SCSC2=C(C(=O)O)N3C(=O)[C@@H](NC(=O)CSc4cc(Cl)ccc4Cl)[C@H]3SC2)n1 [Example I-10, (6R,7R)-1,4,6-triamino-2-[({[2-carboxy-7-({2-[(2,5-dichlorophenyl)sulfany-1]acetyl}amino)-8-oxo-5-thia-1-azabicyclo[4.2.0]oct-2-en-3-yl]sulfanyl}methyl)sulfanyl]p-yrimidin-1-iu m]

Minimum Inhibitory Concentration (MIC), S. epidermidis R005 ([1]; Table 1): 0.13 :g/ml | Minimum Inhibitory Concentration (MIC), E. faecalis L239 [6]: 0.13 :g/ml | Minimum Inhibitory Concentration (MIC), Staphylococcus aureus giorgio ([3]; Table 1): <0.008 :g/ml | Minimum Inhibitory Concentration (MIC), S. aureus 241 [7]: 2 :g/ml | Minimum Inhibitory Concentration (MIC), S. aureus 77 ([5]; Table 1): 0.25 :g/ml
Compound: Cn1c(N)n[n+]2c(SCSC3=C(C(=O)O)N4C(=O)[C@@H](NC(=O)CSc5cc(Cl)ccc5Cl)[C@H]4SC3)nc(N)cc12 [Example I-14, (6R,7R)-2,7-diamino-5-[({[2-carboxy-7-({2-[(2,5-dichlorophenyl)sulfany-1]acetyl}amino)-8-oxo-5-thia-1-azabicyclo[4.2.0]oct-2-en-3-yl]sulfanyl}methyl)sulfanyl]-1-methyl-1H,2H, 3H-[1,2,4]triazolo[1,5-c]pyrimidin-4-ium]

MIC ([1]; Table 2): 0.25 µg/mL (≈ 0.412 µM) | Minimum Inhibitory Concentration (MIC), E. faecalis EFS004 [2]: 0.5 :g/ml | Minimum Inhibitory Concentration (MIC), S. aureus giorgio [3]: 0.016 :g/ml | Minimum Inhibitory Concentration (MIC), S. aureus K311 [4]: 0.5 :g/ml | MIC ([5]; Table 2): 0.25 µg/mL (≈ 0.412 µM)
Compound: Nc1cc(SCSC2=C(C(=O)O)N3C(=O)[C@@H](NC(=O)CSc4cc(Cl)nc(Cl)c4)[C@H]3SC2)nc(N)n1 [Example I-24, (6R,7R)-3-({[(2,6-diamino-4-pyrimidinyl)sulfanyl]methyl}sulfanyl)-7-({2-[(2,6-dichloro-4-pyridinyl)sulfanyl]acetyl}amino)-8-oxo-5-thia-1-azabicyclo[4.2.0]oct-2-ene-2-carboxylic acid]

MIC ([1]; Table 1): 0.25 µg/mL (≈ 0.393 µM) | MIC ([6]; Enterococcus faecalis, L239, read-out: Minimum Inhibitory Concentration (MIC), E. faecalis L239): 0.25 µg/mL (≈ 0.393 µM) | MIC ([3]; Staphylococcus aureus, Table 1, read-out: Minimum Inhibitory Concentration (MIC), Staphylococcus aureus giorgio): < 0.008 µg/mL | MIC ([7]; Staphylococcus aureus, 241, read-out: Minimum Inhibitory Concentration (MIC), S. aureus 241): 4 µg/mL (≈ 6.29 µM) | MIC ([5]; Table 1): 0.5 µg/mL (≈ 0.787 µM)
Compound: CSc1nc(C)cc(SCSC2=C(C(=O)O)N3C(=O)[C@@H](NC(=O)CSc4cc(Cl)ccc4Cl)[C@H]3SC2)n1 [Example I-22, (6R,7R)-7-({2-[(2,5-dichlorophenyl)sulfanyl]acetyl}amino)-3-[({[6-methyl-2-(methylsulfanyl)-4-pyrimidinyl]sulfanyl}methyl)sulfanyl]-8-oxo-5-thia-1-azabicyclo[4.2. 0]oct-2-ene-2-carboxylic acid]

Minimum Inhibitory Concentration (MIC), S. epidermidis R005 ([1]; Table 1): 0.5 :g/ml | Minimum Inhibitory Concentration (MIC), E. faecalis L239 [6]: 1 :g/ml | Minimum Inhibitory Concentration (MIC), Staphylococcus aureus giorgio ([3]; Table 1): 0.016 :g/ml | Minimum Inhibitory Concentration (MIC), S. aureus 241 [7]: 8 :g/ml | Minimum Inhibitory Concentration (MIC), S. aureus 77 ([5]; Table 1): 0.5 :g/ml
Compound: Nc1cc(SCSC2=C(C(=O)O)N3C(=O)[C@@H](NC(=O)CNc4cc(Cl)ccc4Cl)[C@H]3SC2)nc(N)n1 [Example I-5]
